Tests used:
[1] = test system: scentless chamomile; assay: Test E scentless chamomile; type: in vivo, Matricaria inodora; settings: Postemergence
Description: (§1) Compounds evaluated in this test were formulated in a non-phytotoxic solvent mixture which included a surfactant and applied to plants that were in the 1- to 4-leaf stage (postemergence application). A mixture of sandy loam soil and greenhouse potting mix in a 60:40 ratio was used for the postemergence test.
(§2) Plantings of these crops and weed species were adjusted to produce plants of appropriate size for the postemergence test. All plant species were grown using normal greenhouse practices. Crop and weed species include annual bluegrass (Poa annua), blackgrass (Alopecurus myosuroides), black nightshade (Solanum nigra), chickweed (Stellaria media), common poppy (Papaver rhoeas), deadnettle (Lamium amplexicaule), downy brome (Bromus tectorum), field violet (Viola arvensis), galium (Galium aparine), green foxtail (Setaria viridis), Italian ryegrass (Lolium multiflorum), jointed goatgrass (Aegilops cylindrica), kochia (Kochia scoparia), lambsquarters (Chenopodium album), littleseed canarygrass (Phalaris minor), rape (Brassica napus), redroot pigweed (Amaranthus retroflexus), Russian thistle (Salsola kali), scentless chamomile (Matricaria inodora), spring barley (Hordeum vulgare), sugar beet (Beta vulgaris), sunflower (Helianthus annuus), ivyleaf speedwell (Veronica hederaefolia), spring wheat (Triticum aestivum), winter wheat (Triticum aestivum), wild buckwheat (Polygonum convolvulus), wild mustard (Sinapis arvensis), wild oat (Avena fatua), windgrass (Apera spica-venti) and winter barley (Hordeum vulgare).
(§3) Treated plants and untreated controls were maintained in a greenhouse for approximately 21 to 28 days, after which all treated plants were compared to untreated controls and visually evaluated. […] A dash response (-) means no test result.

[2] = test system: jointed goatgrass; assay: Test E jointed goatgrass; type: in vivo, Aegilops cylindrica; settings: Preemergence
[3] = test system: sunflower; assay: Test E sunflower; type: in vivo, Helianthus annuus; settings: Postemergence
Procedure, shortened: (§4)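 Compound formulated with surfactant in a non-phytotoxic solvent (postemergence: young 1- to 4-leaf plants); held in greenhouse approx. 21–28 days; visual assessment against untreated plants.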

[4] = test system: jointed goatgrass; assay: Test E jointed goatgrass; type: in vivo, Aegilops cylindrica; settings: Postemergence
Description: as §1, §2, §3

[5] = test system: winter barley; assay: Test E winter barley; type: in vivo, Hordeum vulgare; settings: Postemergence
Procedure, shortened: as §4

[6] = test system: galium; assay: Test E galium; type: in vivo, Galium aparine; settings: Preemergence
[7] = test system: Italian ryegrass; assay: Test E Italian ryegrass; type: in vivo, Lolium multiflorum; settings: Postemergence
Description: as §1, §2, §3

[8] = test system: wild buckwheat; assay: Test E wild buckwheat; type: in vivo, Polygonum convolvulus; settings: Preemergence
[9] = test system: sugar beet; assay: Test E sugar beet; type: in vivo, Beta vulgaris; settings: Postemergence
Procedure, shortened: as §4

[10] = test system: windgrass; assay: Test E windgrass; type: in vivo, Apera spica-venti; settings: Preemergence
[11] = test system: deadnettle; assay: Test E deadnettle; type: in vivo, Lamium amplexicaule; settings: Preemergence
[12] = test system: common poppy; assay: Test E common poppy; type: in vivo, Papaver rhoeas; settings: Postemergence
Description: as §1, §2, §3

[13] = test system: downy brome; assay: Test E downy brome; type: in vivo, Bromus tectorum; settings: Postemergence; for Plant response rating, Downy brome: 0 to 100 scale
Procedure, shortened: as §4

[14] = test system: chickweed; assay: Test E chickweed; type: in vivo, Stellaria media; settings: Postemergence
Description: as §1, §2, §3

[15] = test system: redroot pigweed; assay: Test E redroot pigweed; type: in vivo, Amaranthus retroflexus; settings: Preemergence
[16] = test system: kochia; assay: Test E kochia; type: in vivo, Kochia scoparia; settings: Preemergence
[17] = test system: black nightshade; assay: Test E black nightshade; type: in vivo, Solanum nigra; settings: Postemergence
Description: as §1, §2, §3

[18] = test system: Russian thistle; assay: Test E Russian thistle; type: in vivo, Salsola kali; settings: Postemergence
Procedure, shortened: as §4

[19] = test system: green foxtail; assay: Test E green foxtail; type: in vivo, Setaria viridis; settings: Postemergence
Description: as §1, §2, §3

[20] = test system: ivyleaf speedwell; assay: Test E postemergence ivyleaf speedwell; type: in vivo, Veronica hederaefolia
Description: as §1, §2, §3

[21] = test system: lambsquarters; assay: Test E lambsquarters; type: in vivo, Chenopodium album; settings: Postemergence
Description: as §1, §2, §3

[22] = test system: annual bluegrass; assay: Test E annual bluegrass; type: in vivo, Poa annua; settings: Preemergence
[23] = test system: sunflower; assay: Test E sunflower; type: in vivo, Helianthus annuus; settings: Preemergence
[24] = test system: blackgrass; assay: Test E blackgrass; type: in vivo, Alopecurus myosuroides; settings: Postemergence
Description: as §1, §2, §3

[25] = test system: spring wheat; assay: Test E spring wheat; type: in vivo, Triticum aestivum; settings: Preemergence
[26] = test system: kochia; assay: Test E kochia; type: in vivo, Kochia scoparia; settings: Postemergence
Procedure, shortened: as §4

[27] = Rate 250 g/ha, 0 to 100 scale (0 no effect, 100 complete control)
[28] = Rate 62 g/ha, 0 to 100 scale, 0 no effect, 100 complete control
[29] = Rate 125 g/ha, 0 to 100 scale (0 no effect, 100 complete control)

C=CCn1c(=O)on(C(=O)N(c2ccccc2)C(C)C)c1=O [Compound 93]
Plant response rating, Scentless chamo ([1]; Rate 62 g/ha, 0 to 100 scale): 0
Plant response rating, Scentless chamo ([1]; Rate 125 g/ha, 0 to 100 scale): 0
Plant response rating, Scentless chamo [1, 27]: 0
Plant response rating, Jointed goatgra [2, 28]: 15
Plant response rating, Jointed goatgra [2, 29]: 70
Plant response rating, Jointed goatgra ([2]; Rate 250 g/ha, 0 to 100 scale): 60
Plant response rating, Sunflower ([3]; Rate 62 g/ha, 0 to 100 scale): 0
Plant response rating, Sunflower ([3]; Rate 125 g/ha, 0 to 100 scale): 0
Plant response rating, Sunflower [3, 27]: 0
Plant response rating, Jointed goatgra ([4]; Rate 62 g/ha, 0 to 100 scale): 0
Plant response rating, Jointed goatgra ([4]; Rate 125 g/ha, 0 to 100 scale): 0
Plant response rating, Jointed goatgra [4, 27]: 0
Plant response rating, Barley (winter) ([5]; Rate 62 g/ha, 0 to 100 scale): 0
Plant response rating, Barley (winter) ([5]; Rate 125 g/ha, 0 to 100 scale): 0
Plant response rating, Barley (winter) [5, 27]: 0
Plant response rating, Galium [6, 28]: 10
Plant response rating, Galium [6, 29]: 15
Plant response rating, Galium ([6]; Rate 250 g/ha, 0 to 100 scale): 100
Plant response rating, I. Ryegrass ([7]; Rate 62 g/ha, 0 to 100 scale): 0
Plant response rating, I. Ryegrass ([7]; Rate 125 g/ha, 0 to 100 scale): 0
Plant response rating, I. Ryegrass [7, 27]: 0
Plant response rating, Wild buckwheat [8, 28]: 30
Plant response rating, Wild buckwheat [8, 29]: 30
Plant response rating, Wild buckwheat ([8]; Rate 250 g/ha, 0 to 100 scale): 40
Plant response rating, Sugar beet ([9]; Rate 62 g/ha, 0 to 100 scale): 0
Plant response rating, Sugar beet ([9]; Rate 125 g/ha, 0 to 100 scale): 0
Plant response rating, Sugar beet [9, 27]: 0
Plant response rating, Windgrass [10, 28]: 100
Plant response rating, Windgrass [10, 29]: 100
Plant response rating, Deadnettle [11, 28]: 10
Plant response rating, Deadnettle [11, 29]: 10
Plant response rating, Deadnettle ([11]; Rate 250 g/ha, 0 to 100 scale): 85
Plant response rating, Common poppy ([12]; Rate 62 g/ha, 0 to 100 scale): 0
Plant response rating, Comnion poppy ([12]; Rate 125 g/ha, 0 to 100 scale): 0
Plant response rating, Common poppy [12, 27]: 0
Plant response rating, Downy brome ([13]; Rate 62 g/ha): 0
Plant response rating, Downy brome ([13]; Rate 125 g/ha): 0
Plant response rating, Downy brortie [13, 27]: 0
Plant response rating, Chickweed ([14]; Rate 62 g/ha, 0 to 100 scale): 0
Plant response rating, Chickweed ([14]; Rate 125 g/ha, 0 to 100 scale): 0
Plant response rating, Chickweed [14, 27]: 0
Plant response rating, Redroot pigweed [15, 28]: 100
Plant response rating, Redroot pigweed [15, 29]: 100
Plant response rating, Redroot pigweed ([15]; Rate 250 g/ha, 0 to 100 scale): 90
Plant response rating, Kochia [16, 28]: 0
Plant response rating, Kochia [16, 29]: 0
Plant response rating, Kochia ([16]; Rate 250 g/ha, 0 to 100 scale): 20
Plant response rating, Blk nightshade ([17]; Rate 62 g/ha, 0 to 100 scale): 0
Plant response rating, Blk nightshade ([17]; Rate 125 g/ha, 0 to 100 scale): 0
Plant response rating, Blk nightshade [17, 27]: 50
Plant response rating, Russian thistle ([18]; Rate 62 g/ha, 0 to 100 scale): 0
Plant response rating, Russian thistle ([18]; Rate 125 g/ha, 0 to 100 scale): 0
Plant response rating, Russian thistle [18, 27]: 0
Plant response rating, Green foxtail ([19]; Rate 62 g/ha, 0 to 100 scale): 0
Plant response rating, Green foxtail ([19]; Rate 125 g/ha, 0 to 100 scale): 0
Plant response rating, Green foxtail [19, 27]: 0
Plant response rating, Veronica hedera ([20]; Rate 62 g/ha, 0 to 100 scale): 0
Plant response rating, Veronica hedera ([20]; Rate 125 g/ha, 0 to 100 scale): 0
Plant response rating, Veronica hedera [20, 27]: 0
Plant response rating, Lambsquarters ([21]; Rate 62 g/ha, 0 to 100 scale): 0
Plant response rating, Lambsquarters ([21]; Rate 125 g/ha, 0 to 100 scale): 0
Plant response rating, Lambsquarters [21, 27]: 0
Plant response rating, Annual bluegras [22, 28]: 10
Plant response rating, Annual bluegras [22, 29]: 50
Plant response rating, Annual bluegras ([22]; Rate 250 g/ha, 0 to 100 scale): 65
Plant response rating, Sunflower [23, 28]: 10
Plant response rating, Sunflower [23, 29]: 5
Plant response rating, Sunflower ([23]; Rate 250 g/ha, 0 to 100 scale): 20
Plant response rating, Blackgrass ([24]; Rate 62 g/ha, 0 to 100 scale): 10
Plant response rating, Blackgrass ([24]; Rate 125 g/ha, 0 to 100 scale): 30
Plant response rating, Blackgrass [24, 27]: 40
Plant response rating, Spring Wheat [25, 28]: 30
Plant response rating, Spring Wheat [25, 29]: 50
Plant response rating, Spring Wheat ([25]; Rate 250 g/ha, 0 to 100 scale): 80
Plant response rating, Kochia ([26]; Rate 62 g/ha, 0 to 100 scale): 0
Plant response rating, Kochia ([26]; Rate 125 g/ha, 0 to 100 scale): 0
Plant response rating, Kochia [26, 27]: 0

Reference: patent publication US6737383B1, “Herbicidal oxadiazolidines” (priority 1999, dated 2004)
